Test results published in patent US20240279227A1, “FUSED HETEROCYCLIC DERIVATIVES” (Janssen Sciences Ireland Unlimited Company, priority 2021, published 2024).

What was measured:
[1] = Human liver microsome stability; assay type: in vitro ADME; settings: human, pooled human liver microsomes, pH 7.4, pooled human liver microsomes 0.5 mg/mL, 1 μM compound, NADPH 1 mM, pH 7.4, 37° C., 0-60 min; read-out: HLM Metabolism t1/2
Experimental: Pooled human liver microsomes (0.5 mg/mL) was pre-incubated with 1 μM test compounds or control compounds (verapamil, warfarin and cerivastatin) in 0.1 M phosphate buffer pH 7.4 containing 1 mM MgCl2 at 37° C. The final concentration of DMSO and acetonitrile are 0.05% and 0.2%, respectively. All incubations are performed singularly for each compound. NADPH was added to initiate the reaction with the final concentration of 1 mM and the final incubation volume of 400 μL.
At 6 time points (0, 5, 10, 20, 40 and 60 min) reactions were stopped by the removal of 50 μL of the incubation mixture into plates containing acetonitrile at a of 1:3 (v:v). The plates were centrifuged at 3000 rpm for 10 min at 4° C. to precipitate the protein. Following protein precipitation, the sample supernatants were combined in cassettes of up to 8 compounds. The internal standard was added (1:1 supernatant to internal standard solution) and samples were analyzed using standard LC-MS conditions.
From a plot of ln peak area ratio (compound peak area/internal standard peak area) against time, the gradient of the line is determined. Subsequently, half-life is calculated using the equations below: […]

HBV = experiment: Anti-HBV activity in HepG2.117 cell line (intracellular HBV DNA, real-time PCR); assay type: cell-based, hepatitis B virus; settings: HepG2.117 cells, HBV replication induced, 3 days of treatment, intracellular HBV DNA by real-time PCR
Experimental: The anti HBV activity was measured using the HepG2.117 cell line, a stable, inducibly HBV producing cell line, which replicates HBV in the absence of doxycycline (Tet-off system). The HepG2 cell line is available from ATCCR under number HB-8065. Transfection of the HepG2 cell line can be as described in Sun and Nassal 2006 Journal of Hepatology 45 (2006) 636-645 “Stable HepG2-and Huh7-based human hepatoma cell lines for efficient regulated expression of infectious hepatitis B virus”.
For the antiviral assay, HBV replication was induced, followed by a treatment with serially diluted compound in 96-well plates. After 3 days of treatment, the antiviral activity was determined by quantification of intracellular HBV DNA using real-time PCR and an HBV specific primer set and probe.

[2] = Cytotoxicity, ATPlite Luminescence Assay; assay type: cell-based, human; settings: human, HepG2 or HepG2.117 cells, 3-days incubation unless marked with *, ATPlite viability
Experimental: Cytotoxicity of the compounds was tested using HepG2 or HepG2.117 cells, incubated for 3 or 4 days in the presence of compounds. The viability of the cells was assessed using the PERKIN ELMER ATPlite Luminescence Assay System.”

[3] = Hepatitis B virus, HepG2.117, 72 h

Row | SMILES | half-life at 1 μM [1] | EC50 (HBV; [3]) | CC50 [2] | EC50 (HBV)
1 | CNC(=O)[C@@H]1CN(C(C)c2ccc(C(C)(C)O)nc2)C(=O)c2c3c(nn21)C[C@@H](C)N(C(=O)c1ccc(Cl)c(Cl)c1)C3 (single isomer, unassigned) [Compound 3B, (3R,7S)-2-(3,4-Dichlorobenzoyl)-9-((S*)-1-(6-(2-hydroxypropan-2-yl)pyridin-3-yl)ethyl)-N,3-dimethyl-10-oxo-1,2,3,4,7,8,9,10-octahydropyrido[4′,3′:3,4]pyrazolo[1,5-a]pyrazine-7-carboxamide] | > 3 h | 0.051 µM | > 50 µM | 
2 | CNC(=O)[C@@H]1CN(Cc2ccc(OC(F)F)cc2)C(=O)c2c3c(nn21)C[C@@H](C)N(C(=O)c1ccc(Cl)c(C(F)(F)F)c1)C3 [Compound 28, (3R,7S)-2-(4-Chloro-3-(trifluoromethyl)benzoyl)-9-(4-(difluoromethoxy)benzyl)-N,3-dimethyl-10-oxo-1,2,3,4,7,8,9,10-octahydropyrido[4′,3′:3,4]pyrazolo[1,5-a]pyrazine-7-carboxamide] | > 3 h | 0.019 µM | 29.5 µM | 
3 | CNC(=O)[C@@H]1CN(C(C)c2ccc(OC)nc2)C(=O)c2c3c(nn21)C[C@@H](C)N(C(=O)c1ccc(Cl)c(Cl)c1)C3 (single isomer, unassigned) [Compound 31A, (3R,7S)-2-(3,4-Dichlorobenzoyl)-9-((R*)-1-(6-methoxypyridin-3-yl)ethyl)-N,3-dimethyl-10-oxo-1,2,3,4,7,8,9,10-octahydropyrido[4′,3′:3,4]pyrazolo[1,5-a]pyrazine-7-carboxamide] | > 3 h |  | > 50 µM | 0.066 µM
4 | CNC(=O)[C@@H]1CN(C(C)c2ccc(-c3c(C)noc3C)nc2)C(=O)c2c3c(nn21)C[C@@H](C)N(C(=O)c1ccc(Cl)c(Cl)c1)C3 (single isomer, unassigned) [Compound 35A, (3R,7S)-2-(3,4-Dichlorobenzoyl)-9-((R*)-1-(6-(3,5-dimethylisoxazol-4-yl)pyridin-3-yl)ethyl)-N,3-dimethyl-10-oxo-1,2,3,4,7,8,9,10-octahydropyrido[4′,3′:3,4]pyrazolo[1,5-a]pyrazine-7-carboxamide] | 1.16 h |  | > 50 µM | 0.39 µM
5 | CNC(=O)[C@@H]1CN(C(C)c2ccc(S(=O)(=O)C3CC3)cc2)C(=O)c2c3c(nn21)C[C@@H](C)N(C(=O)c1ccc(Cl)c(C(F)(F)F)c1)C3 (single isomer, unassigned) [Compound 20A, (3R,7S)-2-(4-Chloro-3-(trifluoromethyl)benzoyl)-9-((R*)-1-(4-(cyclopropylsulfonyl)phenyl)ethyl)-N,3-dimethyl-10-oxo-1,2,3,4,7,8,9,10-octahydropyrido[4′,3′:3,4]pyrazolo[1,5-a]pyrazine-7-carboxamide] | > 3 h |  | > 50 µM | 0.089 µM
6 | CNC(=O)[C@@H]1CN(C(C)c2cnc(C(F)(F)F)nc2)C(=O)c2c3c(nn21)C[C@@H](C)N(C(=O)c1ccc(Cl)c(C(F)(F)F)c1)C3 (single isomer, unassigned) [Compound 43A, (3R,7S)-2-(4-Chloro-3-(trifluoromethyl)benzoyl)-N,3-dimethyl-10-oxo-9-((R*)-1-(2-(trifluoromethyl)pyrimidin-5-yl)ethyl)-1,2,3,4,7,8,9,10-octahydropyrido[4′,3′:3,4]pyrazolo[1,5-a]pyrazine-7-carboxamide] | > 3 h |  | > 50 µM | 0.61 µM
7 | C[C@@H]1Cc2nn3c(c2CN1C(=O)c1ccc(Cl)c(C#N)c1)C(=O)N([C@@H](C)c1ccc(OC(F)F)cc1)C[C@H]3C(=O)N(C)C [Compound 27B, (3R,7S)-2-(4-chloro-3-cyanobenzoyl)-9-((S)-1-(4-(difluoromethoxy)phenyl)ethyl)-N,N,3-trimethyl-10-oxo-1,2,3,4,7,8,9,10-octahydropyrido[4′,3′:3,4]pyrazolo[1,5-a]pyrazine-7-carboxamide] | > 3 h | 0.046 µM | > 50 µM | 
8 | CNC(=O)[C@@H]1CN(C(C)c2ccc(-n3cncn3)cn2)C(=O)c2c3c(nn21)C[C@@H](C)N(C(=O)c1ccc(Cl)c(Cl)c1)C3 (single isomer, unassigned) [Compound 40A, (3R,7S)-9-((R*)-1-(5-(1H-1,2,4-Triazol-1-yl)pyridin-2-yl)ethyl)-2-(3,4-dichlorobenzoyl)-N,3-dimethyl-10-oxo-1,2,3,4,7,8,9,10-octahydropyrido[4′,3′:3,4]pyrazolo [1,5-a]pyrazine-7-carboxamide] | > 3 h |  | > 50 µM | 0.28 µM
9 | CC(c1ccc(C(F)(F)F)nc1)N1C[C@@H](C(=O)N(C)C)n2nc3c(c2C1=O)CN(C(=O)c1ccc(Cl)c(Cl)c1)[C@H](C)C3 (single isomer, unassigned) [Compound 8B, (3R,7S)-2-(3,4-dichlorobenzoyl)-N,N,3-trimethyl-10-oxo-9-((S*)-1-(6-(trifluoromethyl)pyridin-3-yl)ethyl)-1,2,3,4,7,8,9,10-octahydropyrido[4′,3′:3,4]pyrazolo[1,5-a]pyrazine-7-carboxamide] | > 3 h | 0.071 µM | > 50 µM | 
10 | CNC(=O)[C@@H]1CN(C(C)c2ccc(C(F)(F)F)nc2)C(=O)c2c3c(nn21)C[C@@H](C)N(C(=O)c1ccc(Br)c(Cl)c1)C3 (single isomer, unassigned) [Compound 10B, (3R,7S)-2-(4-bromo-3-chlorobenzoyl)-N,3-dimethyl-10-oxo-9-((S*)-1-(6-(trifluoromethyl)pyridin-3-yl)ethyl)-1,2,3,4,7,8,9,10-octahydropyrido[4′,3′:3,4]pyrazolo[1,5-a]pyrazine-7-carboxamide] | > 3 h | 0.019 µM | 46.8 µM | 
11 | CNC(=O)[C@@H]1CN([C@H](C)c2ccc(C(F)(F)F)nc2)C(=O)c2c3c(nn21)C[C@@H](C)N(C(=O)c1ccc(Cl)c(Cl)c1)C3 [Compound 13A, (3R,7S)-2-(3,4-Dichlorobenzoyl)-N,3-dimethyl-10-oxo-9-((R)-1-(6-(trifluoromethyl)pyridin-3-yl)ethyl)-1,2,3,4,7,8,9,10-octahydropyrido[4′,3′:3,4]pyrazolo[1,5-a]pyrazine-7-carboxamide] | > 3 h | 0.34 µM | > 50 µM | 
12 | CNC(=O)[C@@H]1CN([C@@H](C)c2ccc(S(C)(=O)=O)cc2)C(=O)c2c3c(nn21)C[C@@H](C)N(C(=O)c1ccc(Cl)c(Cl)c1)C3 [Compound 18B, (3R,7S)-2-(3,4-Dichlorobenzoyl)-N,3-dimethyl-9-((S)-1-(4-(methylsulfonyl)phenyl)ethyl)-10-oxo-1,2,3,4,7,8,9,10-octahydropyrido[4′,3′:3,4]pyrazolo[1,5-a]pyrazine-7-carboxamide] | > 3 h | 0.037 µM | > 50 µM | 
13 | CNC(=O)[C@@H]1CN([C@@H](C)c2ccc(OC(F)F)cc2)C(=O)c2c3c(nn21)C[C@@H](C)N(C(=O)c1ccc(Cl)c(Cl)c1)C3 [Compound 16B, (3R,7S)-2-(3,4-dichlorobenzoyl)-9-((S)-1-(4-(difluoromethoxy)phenyl)ethyl)-N,3-dimethyl-10-oxo-1,2,3,4,7,8,9,10-octahydropyrido[4′,3′:3,4]pyrazolo[1,5-a]pyrazine-7-carboxamide] | > 3 h | 0.02 µM | 16.9 µM | 
14 | CNC(=O)[C@@H]1CN(Cc2ccc(S(=O)(=O)C3CC3)cc2)C(=O)c2c3c(nn21)C[C@@H](C)N(C(=O)c1ccc(Cl)c(C(F)(F)F)c1)C3 [Compound 21, (3R,7S)-2-(4-Chloro-3-(trifluoromethyl)benzoyl)-9-(4-(cyclopropylsulfonyl)benzyl)-N,3-dimethyl-10-oxo-1,2,3,4,7,8,9,10-octahydropyrido[4′,3′:3,4]pyrazolo[1,5-a]pyrazine-7-carboxamide] | > 3 h | 0.086 µM | > 50 µM | 
15 | C[C@@H]1Cc2nn3c(c2CN1C(=O)c1ccc(Cl)c(Cl)c1)C(=O)N([C@@H](C)c1ccc(OC(F)F)cc1)CC3 [Ref 2, reference compound] | 0.117 h | 0.026 µM | 19.8 µM | 
